The values below come from patent publication US6153768A, “Benzopyran derivatives” (C & C Research Laboratories, priority 1996, dated 2000).

The test system of one test is estrogen receptor. The settings on record: literature, in words; cited from earlier work.
The next test has as its system MCF-7 cells. Briefly: Cell growth inhibiting activity (MTT, 0.1 nM estradiol, 7 days). The class given is cell-based. The settings on record: Homo sapiens, MCF7, 168 h, MCF-7, 0.1 nM estradiol. The method, then:
In this experiment, the cell growth inhibiting activity was determined by using the compounds of Examples 6, 7, 12 and 46 as the test compound and the known anti-estrogenic compound ZM189154 having the following structure (see, EP0124369 B1) as the control compound, according to the method described hereinafter. [drawing 72]
One day before drug administration, incubated MCF-7 cells were plated in 96-well plate in the concentration of 5×10^3 cells per well. After the 96-well plate was incubated for one day, 0.1 nM of estradiol and the test compound in the given concentration were added to each well. The plate was incubated for 7 days at 37° C. and then MTT solution (Sigma) was added to each well in the amount of 15 μl and allowed to react for 2 hours at 37° C. After the reaction is completed, the solubilizing/stopping solution (constitution: SDS, acetic acid, N,N-dimethylformamide) was added to each well in the amount of 100 μl. Then, the absorption for each well at 570 nm was measured by means of a plate reader. IC50 value for inhibiting cell growth of 50% was calculated from the results as measured and described in the following Table 1.

For test [1], the system named is increase of uterine weight by estradiol in ovariectomized mice. Briefly: Anti-estrogenic activity, inhibition of uterine weight increase, subcutaneous administration. It counts as in vivo, mice (ICR). The note with it: s.c.; for Inhibition (%) of increase of uterine weight: 30 μg/mouse, 3 days; for inhibition of increase of uterine weight compared to ZM189154: in words. The method, then:
Anti-estrogenic activity of the test compound by subcutaneous administration was determined according to the method described hereinafter. In this experiment, the compounds of Examples 6, 7, 12 and 46 were used as the test compound and the known anti-estrogenic compound ZM189154 was used as the control compound as in Experiment 1.
In this experiment, the test compound or the control compound was dissolved in peanut oil (Sigma) and injected subcutaneously for 3 days, once a day. After 24 hours from the last injection, the test animal was sacrificed and uterus was removed and weighed.

Test [2] shares this test system. Briefly: Anti-estrogenic activity, inhibition of uterine weight increase, oral administration. It counts as in vivo, mice (ICR). The note with it: 10 mg/kg, p.o., 3 days. How it is done: Oral anti-estrogenic activity of the test compound was determined according to the method described hereinafter. In this experiment, the compound of Example 7 was used as the test compound and the known anti-estrogenic compound ZM189154 was used as the control compound as in Experiment 2.
In this experiment, the test compound or the control compound was suspended in 5% arabic gum solution and orally administered for 3 days, once a day. After 24 hours from the last administration, the test animal was sacrificed and uterus was removed and weighed.

In a further test the test system is mouse femur. Briefly: Effect on bone mineral density of mouse femur. The note with it: for whole BMD / proximal BMD / distal BMD: mean ± SE, s.c. once a week, 6 weeks; for whole BMD: control 35.63 ± 0.97; for proximal BMD: control 35.95 ± 1.50; for distal BMD: control 37.80 ± 1.75. The class given is in vivo, BALB/c nude mouse (female). How it is done:
The effect of the compound of the present invention on bone mineral density of mouse femur was determined according to the method described hereinafter. In this experiment, the compounds of Example 7 was used as the test compound and the known anti-estrogenic compound ZM189154 was used as the control compound as in Experiment 2.
MCF-7 cells (ATCC) as human breast cancer cell were transplanted subcutaneously into BALB/c nude mouse (female, 6 weeks) and then estradiol was percutaneously injected twice a week in an amount of 0.01 mg/mouse, for 3 weeks. Thereafter, estradiol was administered once a week in the same amount and the test compound or the control compound dissolved in 10% ethanol-90% peanut oil was administered. The control group received only vehicle. The test or control compound was administered subcutaneously in an amount of […], once a week. After the administration of the test compound for 6 weeks, left femur was excised and soft tissue was removed therefrom. Then the bone mineral density (BMD) was measured in a SPA mode by means of dual energy X-ray absorptiometry DCS-600 (Aloka). For interpretation, femur was divided into ten in the direction of long axis and the mean […] of 3, 4 and 3 fragments from proximal position were calculated. Each of the fragments was represented as proximal, middle or distal, respectively.

The structures appear in SMILES notation.

Consider `C[C@]12CC[C@@H]3c4ccc(O)cc4C[C@@H](CCCCCCCCC[S+]([O-])CCCC(F)(F)C(F)(F)F)[C@H]3[C@@H]1CC[C@@H]2O` (stereo partly shown), for which, in the test on estrogen receptor, the “estrogenic activity (agonistic effect)” value is listed as “without agonistic effect”.
In the test on MCF-7 cells, `C[C@@]1(c2ccc(O)cc2)COc2cc(O)ccc2[C@@H]1CCCCCCCCSCCCC(F)(F)C(F)(F)F` (racemic) [Example 12, (3RS,4RS)-7-hydroxy-3-(4-hydroxyphenyl)-3-methyl-4-[8-(4,4,5,5,5-pentafluoropentylthio)octyl]-2,3-dihydro-4H-benzopyran] gave an IC50 of 524 nM. In test [1], the “Inhibition (%) of increase of uterine weight” value was 74.8% and the “inhibition of increase of uterine weight compared to ZM189154” value (“inhibition of increase of uterine weight” below) is listed as “rather superior to that of ZM189154”.
Take `C[C@@]1(c2ccc(O)cc2)COc2cc(O)ccc2[C@@H]1CCCCCCCCC[S+]([O-])CCN1CCCCC1` (mixture of isomers) [Example 46, (3RS,4RS)-7-hydroxy-3-(4-hydroxyphenyl)-3-methyl-4-[9-((2-piperidinoethyl)sulfinyl)nonyl]-2,3-dihydro-4H-benzopyran]: in the test with MCF-7 cells, 33 nM corresponded to half-maximal inhibition (IC50). Also, in test [1], the “Inhibition (%) of increase of uterine weight” value is 16.7% and the “inhibition of increase of uterine weight” value is recorded as “rather superior to that of ZM189154”.
Consider `CC/C(=C(\c1ccccc1)c1ccc(OCCN(C)C)cc1)c1ccccc1` [Tamoxifen], for which the “estrogenic activity (agonistic effect)” value in the test with estrogen receptor is listed as “exhibits estrogenic activity in some organs”.
As for `CCCCN(C)C(=O)CCCCCCCCCC[C@@H]1Cc2cc(O)ccc2[C@H]2CC[C@]3(C)[C@@H](O)CC[C@H]3[C@H]12` [7 α--(CH2)10 CONMeBu derivative], in the test on estrogen receptor, the anti-estrogenic activity result is listed as “exhibit anti-estrogenic activity”.
The compound `C[C@@]1(c2ccc(O)cc2)COc2cc(O)ccc2[C@@H]1CCCCCCCCCSCCCC(F)(F)C(F)(F)F` (racemic) [Example 6, (3RS,4RS)-7-hydroxy-3-(4-hydroxyphenyl)-3-methyl-4-[9-(4,4,5,5,5-pentafluoropentylthio)nonyl]-2,3-dihydro-4H-benzopyran] returned an IC50 in the test on MCF-7 cells of 277 nM. For the same compound, in test [1], the “Inhibition (%) of increase of uterine weight” value is on record as 83.1% and the “inhibition of increase of uterine weight” value is “rather superior to that of ZM189154”.
In the case of `CC1(c2ccc(O)cc2)CCc2cc(O)ccc2C1CCCCCCCCC[S+]([O-])CCCC(F)(F)C(F)(F)F` (stereo not shown) [ZM189154], inhibition in the test with MCF-7 cells was half-maximal at 77 nM (IC50). Besides, the “Inhibition (%) of increase of uterine weight” value in test [1] was found to be 73.8%. For the same compound, the “Inhibition (%) of increase of uterine weight” value in test [2] turned out to be 41.7%. Also, in the test on mouse femur, the “whole BMD” value was 34.57 ± 1.40 mg/cm^2, the “proximal BMD” value turned out to be 34.19 ± 2.19 mg/cm^2 and the “distal BMD” value is 32.80 ± 1.30 mg/cm^2. For the same compound, in the test on mouse femur (vs control), the “decrease of BMD at distal femur” value turned out to be 13.3%, the “decrease of BMD at proximal femur” value is reported as 4.9% and the “decrease of BMD at whole femur” value stood at 3.0%.
As for `C[C@@]1(c2ccc(O)cc2)COc2cc(O)ccc2[C@@H]1CCCCCCCCC[S+]([O-])CCCC(F)(F)C(F)(F)F` (mixture of isomers) [Example 7, (3RS,4RS)-7-hydroxy-3-(4-hydroxyphenyl)-3-methyl-4-[9-(4,4,5,5,5-pentafluoropentylsulfinyl)nonyl]-2,3-dihydro-4H-benzopyran], the IC50 in the test on MCF-7 cells was 54.8 nM. Further, in test [1], the “Inhibition (%) of increase of uterine weight” value worked out at 87.0% and the “inhibition of increase of uterine weight” value was “rather superior to that of ZM189154”. Further, in test [2], the “Inhibition (%) of increase of uterine weight” value is reported as 68.1%. In the test with mouse femur, the “whole BMD” value is recorded as 37.23 ± 1.41 mg/cm^2, the “proximal BMD” value came to 35.05 ± 2.05 mg/cm^2 and the “distal BMD” value is 36.29 ± 1.46 mg/cm^2.

By IC50 is commonly meant the concentration at which inhibition is half-maximal.
